{
  "source": "patent US20210378992A1",
  "about": "“METHODS FOR TREATING A SUBTYPE OF SMALL CELL LUNG CANCER” (Auransa Inc., priority 2018, published 2021)",
  "key": {"[1]": {"test_system": "human small cell lung cancer sample LU5243", "test": "In vivo patient derived xenograft (PDX) study, LU5243 (predicted responder)", "set-up": "species or system mice", "conditions": "pentamidine 10 or 20 mg/kg IP QD, FIGS. 1 and 2", "experimental": "50 mice were enrolled in the study. 25 mice were randomly allocated to each of two human small cell lung cancer tumor models: LU5181 and LU5243. […] However, expression profile of human LU5243, another SCLC tumor sample, successfully matched with the predicted gene expression signature for pentamidine (e.g., as described above, and in Table 1 and Table 2).\nRandomization of the 50 mice was performed using the multi-task method in the Study Log software on day 0. Average tumor volume (mm^3) for each group ±SD at randomization was as follows. […]\nTumor cryovials containing tumor cells were thawed and prepared for inoculation into mice. Cells were washed in PBS, counted, and re-suspended in cold PBS at concentrations of 100,000 viable cells/100 μL. […]\nMice were monitored weekly for palpable tumors, or any changes in appearance or behavior. Once tumors were palpable, they were measured twice a week using calipers. Tumor volume was calculated using the following equation (longest diameter×shortest diameter^2)/2.\nStock solution of pentamidine was made in water at 10 mg/mL. Amount needed for dosing for one week was calculated and was diluted with PBS. […]\nBody weight was measured twice a week. […]\nFor all animals, tumors were collected, weighed, weight recorded and snap frozen. […]"}, "[2]": {"test_system": "biomarker genes of Tables 1, 2 and 3 (INSM1, GADD45G, C1QL1, STAT6, SMAD3, RNF43 and others)", "test": "Biomarker gene expression after dosing of pentamidine in human SCLC PDX study", "type": "in vivo, mice", "conditions": "SCLC subtype sensitive to pentamidine", "excerpt": "A computational model was constructed to identify patient subpopulations of small cell lung cancer, leveraging data from 5 different datasets of treatment-naïve human small cell lung cancer biopsies (Gene Expression Omnibus identifiers GSE30219, GSE43346, GSE50451; George et al. (2015) Nature 524:47-53; and Rudin et al. (2012) Nat. Genet. 44:1111-1116). Pentamidine was a strong match to one SCLC subpopulation identified by the model. Potential biomarker genes for each subpopulation were discovered using another modeling approach. […] Among the 41 genes (see Tables 1, 2 and 3), the following six genes were selected for further study: INSM1, GADD45G, C1QL1, STAT6, SMAD3 and RNF43.\nFor all animals, tumors were collected, weighed, weight recorded and snap frozen. Blood for plasma isolation was taken from each animal at 4 hours after dosing. All samples collected from this study were stored in −80° C. For Group01-03, any time that an animal has to be taken down prior to normal end of study termination, the animal was dosed and sampled 4 hours after the dose was given. For group04, tumors were collected 4 hours after the third dose was given. Tumors were weighed and snap-frozen."}},
  "data": [
    {"smiles": "N=C(N)c1ccc(OCCCCCOc2ccc(C(=N)N)cc2)cc1", "note": "[Pentamidine, 1,5-Bis(4-amidinophenoxy)pentane]", "values": [
      {"measurement": "efficacy in PDX model (tumor volume)", "setting": "[1]", "result": "significant efficacy"},
      {"measurement": "expression of genes in Table 1 (INSM1, GADD45G, C1QL1) upon treatment with pentamidine", "setting": "[2]; high expression biomarkers", "result": "repressed nearly to normal levels"},
      {"measurement": "expression of genes in Table 2 (STAT6, SMAD3, RNF43) upon treatment with pentamidine", "setting": "[2]; low expression biomarkers", "result": "increased nearly to normal levels"}
    ]}
  ]
}
